# Measurements published in patent publication US10227331B2 (priority 2015, dated 2019).
# Like-named read-outs stand apart in the source and are kept apart here.
# How the values were obtained:
# IMP-1 = IMP-1 (Serratia marcescens, UniProt P52699); test: biochemical; format: biochemical
# Summary of the method: (§1)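 Fluorescence assay of metallo-β-lactamase activity using CCF2-FA, a cephalosporin-linked 7-hydroxycoumarin–fluorescein substrate. Inhibitor, enzyme and substrate were incubated together for 2 hours at 25° C. IC50 came from a 4-parameter fit of inhibition versus inhibitor concentration.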
# NDM-1 = NDM-1 (Klebsiella pneumoniae, UniProt C7C422); test: biochemical; format: biochemical; conditions: CCF2-FA substrate, 2 hours at 25° C; read-out: NDM-1 IC50
# Chain of NDM-1 (C7C422 whole entry, looked up, species assumed): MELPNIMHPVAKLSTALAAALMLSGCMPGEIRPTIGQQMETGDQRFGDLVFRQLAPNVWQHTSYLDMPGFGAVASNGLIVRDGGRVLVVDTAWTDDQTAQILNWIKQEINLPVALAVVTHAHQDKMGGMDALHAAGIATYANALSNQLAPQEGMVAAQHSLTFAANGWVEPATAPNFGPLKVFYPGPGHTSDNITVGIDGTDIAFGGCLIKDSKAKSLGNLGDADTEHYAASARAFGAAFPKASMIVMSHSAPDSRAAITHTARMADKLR
# Summary of the method: as §1
# VIM-1 = VIM-1 (Pseudomonas aeruginosa (strain ATCC 15692 / DSM 22644 / CIP 104116 / JCM 14847 / LMG 12228 / 1C / PRS 101 / PAO1), UniProt A0A0F7KYQ8); test: biochemical; conditions: CCF2-FA substrate, 2 hours at 25° C
# Summary of the method: as §1
# [1] = tested on: P. aeruginosa expressing IMP-1, efflux+ (MB9798); format: cell-based, Pseudomonas aeruginosa; conditions: for P. aeruginosa expressing IMP-1, efflux+ (MB9798) MITC95: imipenem at 2 μg/mL, in the presence of a class A, C, D serine β-lactamase inhibitor closely related to relebactam; for Efflux ratio: ratio MITC95 PA_9798/MITC95 PA_9799
# Excerpt: (§2) The strain background is Pseudomonas aeruginosa PAO1.
# [2] = tested on: P. aeruginosa expressing IMP-1, efflux− (MB9799); test: Efflux: concentration of MBL inhibitor which restores susceptibility to imipenem; format: cell-based, Pseudomonas aeruginosa; conditions: imipenem at 2 μg/mL, in the presence of a class A, C, D serine β-lactamase inhibitor closely related to relebactam
# Excerpt: as §2
# [3] = tested on: Serratia marcescens expressing IMP-1 (CL5741); format: cell-based; conditions: with imipenem 1 μg/ml; 95% inhibition of bacterial growth
# Summary of the method: (§3)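 Clinical strains grown overnight on blood agar, then diluted 1:100 in 1.1× CAMHB and exposed to test compound with imipenem at 1 μg/ml. Incubation was 22–24 h at 35° C; growth was read by absorbance to find the compound concentration restoring imipenem susceptibility.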
# [4] = tested on: Klebsiella pneumoniae expressing VIM-1 (IHMA599644); format: cell-based; conditions: with imipenem 1 μg/ml; 95% inhibition of bacterial growth
# Summary of the method: as §3
# [5] = tested on: Escherichia coli expressing NDM-1 (CLB30005, CLB30016); format: cell-based; conditions: with imipenem 1 μg/ml; 95% inhibition of bacterial growth
# Summary of the method: as §3
# [6] = CCF2-FA substrate, 2 hours at 25° C, read-out: IMP-1 IC50
# Chain of IMP-1 (P52699 whole entry, looked up, species assumed): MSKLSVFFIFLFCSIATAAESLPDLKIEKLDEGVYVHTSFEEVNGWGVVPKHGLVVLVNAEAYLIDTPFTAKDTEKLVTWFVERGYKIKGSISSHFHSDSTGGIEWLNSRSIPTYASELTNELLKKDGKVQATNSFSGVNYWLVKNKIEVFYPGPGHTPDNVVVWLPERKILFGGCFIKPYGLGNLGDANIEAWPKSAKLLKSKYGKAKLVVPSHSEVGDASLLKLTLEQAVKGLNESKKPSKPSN
SMILES,IC50 (IMP-1; [6]) [nM],IC50 (NDM-1) [nM],IC50 (VIM-1) [nM],"P. aeruginosa expressing IMP-1, efflux+ (MB9798) MITC95 [1] [µM]",Efflux ratio [1],"P. aeruginosa expressing IMP-1, efflux− (MB9799) MITC95 [2] [µM]",Serratia marcescens expressing IMP-1 (CL5741) MITC95 [3] [µM],Klebsiella pneumoniae expressing VIM-1 (IHMA599644) MITC95 [4] [µM],Escherichia coli expressing NDM-1 (CLB30016) MITC95 [5] [µM],IC50 (IMP-1) [nM]
"Nc1nc2cccc(-c3ccc(S(=O)(=O)[C@H]4CCNC4)c(S(N)(=O)=O)c3-c3nn[nH]n3)c2[nH]1 [Example 182, 3-(2-amino-3H-benzo[d]imidazol-4-yl)-6-((S)-pyrrolidin-3-ylsulfonyl)-2-(2H-tetrazol-5-yl)benzenesulfonamide]",0.979,0.154,0.21,0.6406,1.00,0.6406,0.6406,0.8906,0.25,–
"Nc1nc2c(-c3ccc(S(=O)(=O)[C@@H]4CCNC4)c(S(N)(=O)=O)c3-c3nn[nH]n3)cccc2s1 [Example 183, 3-(2-aminobenzo[d]thiazol-4-yl)-6((R)-pyrrolidin-3-ylsulfonyl)-2-(2H-tetrazol-5-yl)benzenesulfonamide]",0.157,0.122,0.294,0.7813,1.00,0.7813,1.563,1.563,0.7813,–
"Nc1nc2c(-c3ccc(S(=O)(=O)[C@H]4CCNC4)c(S(N)(=O)=O)c3-c3nn[nH]n3)cccc2s1 [Example 184, 3-(2-aminobenzo[d]thiazol-4-yl)-6-((S)-pyrrolidin-3-ylsulfonyl)-2-(2H-tetrazol-5-yl)benzenesulfonamide]",0.243,0.0925,0.262,0.7813,1.00,0.7813,0.7813,1.563,0.7813,–
"NS(=O)(=O)c1c(S(=O)(=O)[C@@H]2CCNC2)ccc(-c2cccc3cn[nH]c23)c1-c1nn[nH]n1 [Example 185, 3-(1H-indazol-7-yl)-6-((R)-pyrrolidin-3-ylsulfonyl)-2-(2H-tetrazol-5-yl)benzenesulfonamide]",0.466,0.657,0.55,1.563,2.00,0.7813,1.563,3.125,0.7813,–
"NS(=O)(=O)c1c(S(=O)(=O)[C@H]2CCNC2)ccc(-c2cccc3cn[nH]c23)c1-c1nn[nH]n1 [Example 186, 3-(1H-indazol-7-yl)-6-((S)-pyrrolidin-3-ylsulfonyl)-2-(2H-tetrazol-5-yl)benzenesulfonamide]",0.541,0.246,0.228,1.563,2.00,0.7813,1.563,1.563,1.563,–
"Cc1ccc(-c2ccc(S(=O)(=O)[C@@H]3CCNC3)c(S(N)(=O)=O)c2-c2nn[nH]n2)c2nc(N)sc12 [Example 187, 3-(2-amino-7-methylbenzo[d]thiazol-4-yl)-6-((R)-pyrrolidin-3-ylsulfonyl)-2-(2H-tetrazol-5-yl)benzenesulfonamide]",0.0757,0.0691,0.159,1.563,2.00,0.7813,0.7813,1.563,0.7813,–
"Cc1ccc(-c2ccc(S(=O)(=O)[C@H]3CCNC3)c(S(N)(=O)=O)c2-c2nn[nH]n2)c2nc(N)sc12 [Example 188, 3-(2-amino-7-methylbenzo[d]thiazol-4-yl)-6-((S)-pyrrolidin-3-ylsulfonyl)-2-(2H-tetrazol-5-yl)benzenesulfonamide]",0.109,0.0435,0.113,1.563,2.00,0.7813,0.7813,1.563,1.563,–
"Nc1nc2c(-c3ccc(S(=O)(=O)[C@@H]4CCNC4)c(S(N)(=O)=O)c3-c3nn[nH]n3)cccc2o1 [Example 189, 3-(2-aminobenzo[d]oxazol-4-yl)-6-((R)-pyrrolidin-3-ylsulfonyl)-2-(2H-tetrazol-5-yl)benzenesulfonamide]",0.332,0.219,0.419,0.7813,1.00,0.7813,1.563,1.563,1.563,–
"Nc1nc2c(-c3ccc(S(=O)(=O)[C@H]4CCNC4)c(S(N)(=O)=O)c3-c3nn[nH]n3)cccc2o1 [Example 190, 3-(2-aminobenzo[d]oxazol-4-yl)-6-((S)-pyrrolidin-3-ylsulfonyl)-2-(2H-tetrazol-5-yl)benzenesulfonamide]",–,0.113,0.169,1.563,1.00,1.563,1.563,3.125,1.563,0.352
"CS(=O)(=O)c1ccc(-c2cccc3cn[nH]c23)c(-c2nn[nH]n2)c1S(N)(=O)=O [Example 191, 3-(1H-indazol-7-yl)-6-(methylsulfonyl)-2-(2H-tetrazol-5-yl)benzenesulfonamide]",0.21,0.436,0.298,25,15.99,1.563,3.125,6.25,3.125,–
"Cn1c(N)nc2c(-c3ccc(S(C)(=O)=O)c(S(N)(=O)=O)c3-c3nn[nH]n3)cccc21 [Example 192, 3-(2-amino-1-methyl-1H-benzo[d]imidazol-4-yl)-6-(methylsulfonyl)-2-(2H-tetrazol-5-yl)benzenesulfonamide]",0.552,1,0.194,3.125,4.00,0.7813,1.563,3.125,0.7813,–
